{"source": "ChEMBL document CHEMBL3044852", "about": "“Synthesis of N-hydroxycinnamoyl amino acid ester analogues and their free radical scavenging and antioxidative activities” (Med Chem Res, 2012)", "key": {"[1]": {"test": "Antioxidant activity against AAPH-induced hemolysis in Homo sapiens (human) RBC assessed as inhibition time at 10 uM by spectrophotometry", "format": "functional, Erythrocyte"}, "[2]": {"test": "Antioxidant activity assessed as DPPH scavenging activity after 30 min by UV-vis spectroscopy", "format": "functional"}}, "data": [{"smiles": "CCOC(=O)CNC(=O)/C=C/c1ccc(O)c(O)c1", "values": [{"measurement": "Time", "setting": "[1]", "value": 180, "unit": "min"}, {"measurement": "IC50", "setting": "[2]", "value": 12.8, "unit": "µM"}]}, {"smiles": "CCOC(=O)CNC(=O)/C=C/c1ccc(O)c(OC)c1", "values": [{"measurement": "Time", "setting": "[1]", "value": 193, "unit": "min"}, {"measurement": "IC50", "setting": "[2]", "value": 64.6, "unit": "µM"}]}, {"smiles": "CCOC(=O)CNC(=O)/C=C/c1ccc(O)cc1", "values": [{"measurement": "Time", "setting": "[1]", "value": 138, "unit": "min"}, {"measurement": "IC50", "setting": "[2]", "value": "> 200", "unit": "µM"}]}, {"smiles": "CCOC(=O)[C@H](Cc1ccccc1)NC(=O)/C=C/c1ccc(O)c(O)c1", "values": [{"measurement": "IC50", "setting": "[2]", "value": 1.45, "unit": "µM"}]}, {"smiles": "CCOC(=O)[C@H](Cc1ccccc1)NC(=O)/C=C/c1ccc(O)c(OC)c1", "values": [{"measurement": "Time", "setting": "[1]", "value": 198, "unit": "min"}, {"measurement": "IC50", "setting": "[2]", "value": 52.4, "unit": "µM"}]}, {"smiles": "CCOC(=O)[C@H](Cc1ccccc1)NC(=O)/C=C\\c1ccc(O)cc1", "values": [{"measurement": "IC50", "setting": "[2]", "value": "> 200", "unit": "µM"}]}, {"smiles": "COC(=O)[C@H](Cc1ccc(O)cc1)NC(=O)/C=C/c1ccc(O)cc1", "values": [{"measurement": "IC50", "setting": "[2]", "value": "> 200", "unit": "µM"}]}, {"smiles": "CCOC(=O)[C@@H](NC(=O)/C=C/c1ccc(O)c(OC)c1)C(C)C", "values": [{"measurement": "IC50", "setting": "[2]", "value": 87.2, "unit": "µM"}]}, {"smiles": "O=C1O[C@H]([C@@H](O)CO)C(O)=C1O", "note": "[ASCORBIC ACID]", "values": [{"measurement": "IC50", "setting": "[2]", "value": 29.6, "unit": "µM"}]}, {"smiles": "O=C(O)/C=C/c1ccc(O)c(O)c1", "note": "[CAFFEIC ACID]", "values": [{"measurement": "IC50", "setting": "[2]", "value": 18.2, "unit": "µM"}]}, {"smiles": "O=C(O)/C=C/c1ccc(O)cc1", "note": "[COUMARIC ACID]", "values": [{"measurement": "IC50", "setting": "[2]", "value": "> 200", "unit": "µM"}]}, {"smiles": "CCOC(=O)/C=C/c1ccc(O)c(O)c1", "note": "[ETHYL CAFFEATE]", "values": [{"measurement": "IC50", "setting": "[2]", "value": 49, "unit": "µM"}]}, {"smiles": "CCOC(=O)/C=C/c1ccc(O)c(OC)c1", "note": "[ETHYL FERULATE]", "values": [{"measurement": "Time", "setting": "[1]", "value": 150, "unit": "min"}, {"measurement": "IC50", "setting": "[2]", "value": 150, "unit": "µM"}]}, {"smiles": "CCOC(=O)/C=C/c1ccc(O)cc1", "note": "[ETHYL P-COUMARATE]", "values": [{"measurement": "IC50", "setting": "[2]", "value": "> 200", "unit": "µM"}]}, {"smiles": "COc1cc(/C=C/C(=O)O)ccc1O", "note": "[FERULATE]", "values": [{"measurement": "Time", "setting": "[1]", "value": 148, "unit": "min"}, {"measurement": "IC50", "setting": "[2]", "value": 50.1, "unit": "µM"}]}]}
